Experimental data published in patent US10676470B2, “Inhibitors of lysine gingipain” (priority 2014, dated 2020).
Entries after “also recorded” stand apart in the source; their conditions may differ.

Key:
[1] = system: differentiated SHSY-5Y cells; assay: Gingipain-induced death of differentiated SH-SY5Y cells; type: cell-based; conditions: 100 nM Kgp and/or RgpB for 24 hours
Procedure: SH-SY5Y neuroblastoma cells were cultured and differentiated in the presence of 5 uM retinoic acid based on established methods [Saberi S., et al. Cell Mol Neurobiol 2013. 33: 747-751]. Differentiation into neuronal cells was verified by observation of neurite outgrowth. The differentiated cells were exposed to 100 nM Kgp and/or RgpB for 24 hours, in the presence or absence of Kgp inhibitors. Results were recorded using a digital microscope camera (FIG. 1C, FIG. 2C). Gingipains are toxic to cells while COR compounds prevent the cytotoxicity.

abeta 42 = assay: Brain abeta 42 ELISA in mice orally infected with P. gingivalis; type: in vivo; conditions: Balb/cJ mice, oral W83 P. gingivalis for 42 days; compound subcutaneously three times per day on days 21-42
Excerpt: Female Balb/cJ mice were obtained from Taconic and allowed to acclimate. 43-44 week old mice were challenged orally with 10^9 CFU W83 P. gingivalis or a P. gingivalis strain lacking expression of Kgp every other day for 42 days. Compound 2 or vehicle (2% DMSO) was given subcutaneously three times per day on days 21-42. On day 42 mice were sacrificed and the brain removed and frozen. A sample including hippocampal tissue was lysed in RIPA buffer with protease inhibitors and analyzed for Abeta42 expression with the Amyloid beta 42 ELISA Kit, Mouse (Life Technologies).

lysine gingipain (Kgp) = lysine gingipain (Kgp) (Porphyromonas gingivalis (strain ATCC 33277 / DSM 20709 / CIP 103683 / JCM 12257 / NCTC 11834 / 2561), UniProt B2RLK2); assay: Fluorogenic lysine gingipain inhibition assay; type: biochemical; conditions: 0.1 nM Kgp, 10 uM Z-His-Glu-Lys-MCA, 90 minutes, 37° C., pH 7.5
Procedure: The capacities of compounds of the present invention to inhibit the activity of lysine gingipain were measured in a fluorogenic assay similar to those described in Barret Biochemical Journal. 1980, 187(3), 909. The specific assay conditions were as follows. Buffer: pH=7.5, 100 mM Tris-HCl, 75 mM NaCl, 2.5 mM CaCl2, 10 mM cysteine, 1% DMSO after all additions. Protein: 0.1 nM Kgp, isolated from culture of Porphyromonas gingivalis, as described in Pike et al. J. Biol. Chem. 1994, 269(1), 406, and Potempa and Nguyen. Current Protocols in Protein Scienc. 2007, 21.20.1-21.20.27. Fluorogenic substrate: 10 uM Z-His-Glu-Lys-MCA. Time=90 minutes. Temperature=37° C. Each compound: 10 concentrations, starting at either 100 uM or 100 nM, with lower concentrations generated by serial 3-fold dilutions. By testing a range of concentrations for each compound, the concentration required to inhibit the activity of lysine gingipain by 50% (the “IC50”) was determined. Under the described assay conditions, signal-to-noise was excellent, and Z factor was greater than 0.6.
The inhibitory of activity of compounds described herein was tested against Kgp, RgpB, and trypsin.

SHSY5Y cells = assay: P. gingivalis-induced toxicity in SHSY5Y cells; type: cell-based; conditions: SHSY5Y cells in vitro, compared to the antibiotic moxifloxacin

NCCCC[C@H](NC(=O)c1ccccc1)C(=O)c1nc2ccccc2s1 [Compound 1, N-[(1S)-5-amino-1-(1,3-benzothiazole-2-carbonyl)pentyl]benzamide]
prevention of gingipain-induced cell death [1]: prevents gingipain-induced death; also recorded: effective at preventing cell death

NCCCC[C@H](NC(=O)C1CCCCC1)C(=O)c1nc2ccccc2s1 [Compound 2, N-[(1S)-5-amino-1-(1,3-benzothiazole-2-carbonyl)pentyl]cyclohexanecarboxamide]
prevention of gingipain-induced cell death [1]: prevents gingipain-induced death; also recorded: more effective; also recorded: effective at preventing cell death | brain levels of abeta 42 (ELISA) (abeta 42): resolved; also recorded: increase in abeta42 that was not apparently

NCCCC[C@H](NC(=O)[C@H]1CCCN(C(=O)CCc2ccccc2)C1)C(=O)c1nc2ccccc2s1 [Compound 3, (3S)—N-[(1S)-5-amino-1-(1,3-benzothiazole-2-carbonyl)pentyl]-1-(3-phenylpropanoyl)piperidine-3-carboxamide]
prevention of gingipain-induced cell death [1]: does not

NCCCC[C@H](NC(=O)[C@@H]1CCCN(C(=O)CCc2ccccc2)C1)C(=O)c1nc2ccccc2s1 [Compound 4, (3R)—N-[(1S)-5-amino-1-(1,3-benzothiazole-2-carbonyl)pentyl]-1-(3-phenylpropanoyl)piperidine-3-carboxamide]
IC50 (lysine gingipain (Kgp)): 1 to 10 nM | prevention of gingipain-induced cell death [1]: prevents gingipain-induced death | prevention of gingipain-induced cell death ([1]; listed as 2-(N—[N-(3-phenylpropanoyl)-(R)-nipecotinyl]-(R)-lysinyl)-benzothiazole): effective at preventing cell death

NCCCC[C@H](NC(=O)C1CCCC1)C(=O)COc1c(F)c(F)cc(F)c1F [Compound 43, N-[(1S)-5-amino-1-[2-(2,3,5,6-tetrafluorophenoxy)acetyl]pentyl]cyclopentanecarboxamide]
protection from P. gingivalis-induced toxicity (SHSY5Y cells): protects SHSY5Y cells from P. gingivalis-induced toxicity
